Data: US3979508A, “Compositions and methods therewith for penicillin hypersensitivity detection” (Kremers-Urban Company, priority 1975, dated 1976)

Tested on: penicillin hypersensitivity (patients)
Assay: Skin tests for penicillin hypersensitivity: monostereoisomeric penicilloyl-poly-L-lysine vs mixture of stereoisomers (Table II)
Format: in vivo, human
Protocol: One of the uses for the conjugates of this invention is in skin testing for penicillin hypersensitivity. The conjugated compositions are prepared for skin testing by first dissolving the composition in buffered isotonic solutions, having a pH in the range from 7 to 8. For example, the conjugates prepared above may be diluted with aqueous solutions 0.15 M NaCl in 0.01 M phosphate, pH 7.6. In addition, other physiological salt solutions may be used.
Intradermal injections may be made of the foregoing solutions with a 26 guage needle, the volume injected may be generally about 0.01 to 0.03 cc. Alternatively, the conjugate may be applied by the scratch test technique. The development of a wheal at the injection site after about 20 minutes indicates a positive reaction, and penicillin hypersensitivity.
Penicillin hypersensitivity tests carried out with the conjugate compositions of this invention reflect the numerous advantages of penicillin hypersensitivity determinations made with such compositions. […] In Table II the distribution of skin reactions is shown by history of penicillin therapy and hypersensitivity. […] (See column 2, for example, showing the percentages of patients tested who had […] skin test.)

[1] = GROUP I: claimed prior history of non-sensitivity and previous penicillin treatments
[2] = GROUP II: claimed prior history of sensitivity and previous penicillin treatments
[3] = GROUP III: no prior history of sensitivity and no previous penicillin treatments

penicilloyl-poly-L-lysine [PPL]
NEGATIVE SKIN TESTS % [1]: 91.5% | NEGATIVE SKIN TESTS No. [1]: 4223 | NEITHER NEGATIVE NOR POSITIVE SKIN TESTS % [1]: 0.7% | NEITHER NEGATIVE NOR POSITIVE SKIN TESTS No. [1]: 36 | POSITIVE SKIN TESTS % [1]: 7.8% | POSITIVE SKIN TESTS No. [1]: 358 | NEGATIVE SKIN TESTS % [2]: 77.7% | NEGATIVE SKIN TESTS No. [2]: 143 | NEITHER NEGATIVE NOR POSITIVE SKIN TESTS % [2]: nil | NEITHER NEGATIVE NOR POSITIVE SKIN TESTS No. [2]: nil | POSITIVE SKIN TESTS % [2]: 22.3% | POSITIVE SKIN TESTS No. [2]: 41 | NEGATIVE SKIN TESTS % [3]: 96.5% | NEGATIVE SKIN TESTS No. [3]: 637 | NEITHER NEGATIVE NOR POSITIVE SKIN TESTS % [3]: 0.2% | NEITHER NEGATIVE NOR POSITIVE SKIN TESTS No. [3]: 1 | POSITIVE SKIN TESTS % [3]: 3.3% | POSITIVE SKIN TESTS No. [3]: 22 | NEGATIVE SKIN TESTS % (TOTALS, all groups): 91.6% | NEGATIVE SKIN TESTS No. (TOTALS, all groups): 5003 | NEITHER NEGATIVE NOR POSITIVE SKIN TESTS % (TOTALS, all groups): 0.7% | NEITHER NEGATIVE NOR POSITIVE SKIN TESTS No. (TOTALS, all groups): 37 | POSITIVE SKIN TESTS % (TOTALS, all groups): 7.7% | POSITIVE SKIN TESTS No. (TOTALS, all groups): 421
